This note sets out measurements from patent publication US20260174786A1, “A NITROGEN-CONTAINING SPIROCYCLIC COMPOUND, PHARMACEUTICAL COMPOSITION AND USE THEREOF” (Prime Gene Therapeutics Co., Ltd., priority 2022, published 2026).

One data set concerns the target T1, hTRPV3 (Homo sapiens, UniProt Q8NET8).
T1 construct: expressed in transfected cells; host or cells: HEK-293
T1 sequence (Q8NET8 1-790): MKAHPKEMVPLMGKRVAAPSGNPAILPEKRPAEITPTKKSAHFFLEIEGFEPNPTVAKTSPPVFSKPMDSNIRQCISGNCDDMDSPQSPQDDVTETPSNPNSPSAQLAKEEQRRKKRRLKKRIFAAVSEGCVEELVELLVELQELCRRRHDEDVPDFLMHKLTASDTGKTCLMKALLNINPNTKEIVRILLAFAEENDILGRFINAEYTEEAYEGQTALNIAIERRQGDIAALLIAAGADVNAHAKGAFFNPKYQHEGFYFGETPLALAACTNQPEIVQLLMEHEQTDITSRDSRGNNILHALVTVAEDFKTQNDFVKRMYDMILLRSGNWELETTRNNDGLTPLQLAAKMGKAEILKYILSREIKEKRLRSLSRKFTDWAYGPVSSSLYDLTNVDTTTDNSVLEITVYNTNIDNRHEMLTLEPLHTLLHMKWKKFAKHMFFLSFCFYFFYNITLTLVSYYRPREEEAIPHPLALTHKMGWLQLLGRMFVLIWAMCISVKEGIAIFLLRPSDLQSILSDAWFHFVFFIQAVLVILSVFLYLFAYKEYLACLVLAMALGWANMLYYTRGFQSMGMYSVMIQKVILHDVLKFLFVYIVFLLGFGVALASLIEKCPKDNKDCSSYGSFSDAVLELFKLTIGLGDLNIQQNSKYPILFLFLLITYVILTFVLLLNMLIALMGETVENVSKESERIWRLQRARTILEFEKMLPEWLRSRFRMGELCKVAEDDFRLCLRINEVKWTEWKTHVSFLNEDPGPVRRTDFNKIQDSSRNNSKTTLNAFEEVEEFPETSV
The data set is described as follows: Whole cell patch clamp inhibition rate test on HEK-293 cells instantaneously expressing TRPV3. In kind it is cell-based. Conditions: HEK293; hTRPV3, single concentration 0.3 μM. In outline:
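HEK-293 cells transiently transfected with TRPV3, recorded next-but-one day by whole-cell patch clamp at room temperature: holding −80 mV, ramp −100 to 100 mV over 100 ms every 5 s, peak current monitored. Ascending concentrations perfused, 5 min each; each cell its own control, at least two cells per concentration.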
(The patch-clamp technique gives a direct electrical read-out from membranes.)

A short description of data set [1]: Stability assessment of compounds at room temperature under 92.5% humidity (LC-MS). Conditions: 92.5% humidity (open), after 5 days. In kind it is physicochemical. The procedure:
Taking the compound of Example 21 and KM-001-E1 in WO2021154966A1 as examples, the stability thereof was compared:
Compound of Example 21 and KM-001-E1 were accurately weighed and placed in penicillin bottles, and placed at room temperature under 92.5% humidity (open) conditions for 5-10 days to investigate the stability of the compounds.
• instrument: Thermo U3000-ISQEC • column: Xtimate UHPLC C18 1.8 μm 4.6*50 mm • Column temperature: 35° C. • wavelength: 210 nm, 254 nm • mobile phase A: 0.05% formic acid aqueous solution; mobile phase B: 0.05% formic acid acetonitrile; gradient: 30% B 0-1.2 min, 95% B 1.2-3.3 min, 30% B 3.3-4.5 min;
Analyzing the degradation impurities of each compound under 92.5% humidity conditions using LC-MS: The main impurities in Example 21 had m/z 427.17, with a retention time of 2.55 minutes. After being left for 10 days, the peak area proportion was only 0.3%; The main impurities in KM-001-E1 has m/z=431.14 and m/z=415.16, with retention times of 2.31 minutes and 2.64 minutes, respectively. […] Based on LC-MS and NMR data analysis, it can be inferred that the main impurities produced in Example 21 are ketones, while the main impurities produced in KM-001-E1 are aldehydes and carboxylic acids.

As a reminder, the inhibition is the relative decrease from the control value, in per cent. Regarding `CC(C)c1ccccc1-c1ccc2c(c1)C(O)CC21CCN(C(F)(F)c2ccc(F)cn2)C1` (centres unmarked) [Example 146, 1′-(difluoro(5-fluoropyridin-2-yl)methyl)-5-(2-isopropylphenyl)-2,3-dihydrospiro[indene-1,3′-pyrrolidine]-3-ol], at hTRPV3, the inhibition at 0.3 µM was < 25%.
On hTRPV3, `OC1CC2(CCN(c3cnc4cc(Cl)ccn34)C2)c2ccc(-c3ccccc3C3CC3)cc21` (centres unmarked) [Example 152, 5-(2-cyclopropylphenyl)-1′-(7-chloroimidazo[1,2-a]pyridin-3-yl)-2,3-dihydrospiro[indene-1,3′-pyrrolidine]-3-ol] showed an inhibition at 0.3 µM of 70 to 100%.
Same read-out and setting: under `OC1CC2(CCN(c3cnc4cc(F)ccn34)C2)c2ccc(-c3ccccc3C3CC3)cc21` (centres unmarked) [Example 153, 5-(2-cyclopropylphenyl)-1′-(7-fluoroimidazo[1,2-a]pyridin-3-yl)-2,3-dihydrospiro[indene-1,3′-pyrrolidine]-3-ol] stands 70 to 100%; under `O=C1C[C@@]2(CCN(C(=O)c3ccc(F)cn3)C2)c2ccc(-c3ccccc3C3CC3)cc21` [Example 162, (S)-5-(2-cyclopropylphenyl)-1′-(5-fluoropyridoyl)spiro[indene-1,3′-pyrrolidine]-3(2H)-one], < 25%; under `O=C(c1ccc(F)cn1)N1CCC2(CC(O)c3cc(-c4ccc(F)cc4C4CC4)ccc32)C1` (centres unmarked) [Example 163, (5-(2-cyclopropyl-4-fluorophenyl)-3-hydroxy-2,3-dihydrospiro[indene-1,3′-pyrrolidine]-1′-yl)(5-fluoropyridin-2-yl) ketone], 70 to 100%.
At hTRPV3, `CC(C)(C#N)c1ccccc1-c1ccc2c(c1)C(O)CC21CCN(C(=O)c2ccc(F)cn2)C1` (centres unmarked) [Example 164, 2-(2-(1′-(5-fluoropyridoyl)-3-hydroxy-2,3-dihydrospiro[indene-1,3′-pyrrolidine]-5-yl)phenyl)-2-methyl propionitrile] returned an inhibition at 0.3 µM of 50 to 70%.
Turning to `O=C(c1ccc(F)cn1)N1CC[C@H](c2ccc(-c3ccccc3C3CC3)cc2CO)C1` [KM-001-E1], in data set [1], the “peak area proportion of main impurity (m/z=415.16)” value came to 2.43% and the “peak area proportion of main impurity (m/z=431.14)” value came to 2.48%.
